Test results published in patent EP3231799A1, “4-(AZETIDIN-1-YL)PYRIMIDINE DERIVATIVES WITH ANTI-MITOTIC AND ANTI-PROLIFERATIVE ACTIVITY” (Universität Basel, priority 2016, dated 2017).
pEC50: −log10 of the molar value. Read-outs that look alike come from different tables or passages of the source.

Test system: A2058 melanoma cells
Assay: Mitotic arrest (microtubule binding) in A2058 melanoma cells, high-content microscopy
Assay type: cell-based
Conditions: Homo sapiens, inhibitors 1 - 0.008 µM for 24 hours, mean value of at least four experiments
Description: Microtubule binding of compounds of formula (I) was determined in A2058 melanoma cells measuring mitotic arrest in high-throughput, high-content microscopic approaches. Microtubule networks or their depolymerization were visualized in parallel. Cellular tests are beneficial to address the biological question of tubulin binding, but also indirectly measure the uptake of a compound by cells. A hallmark of microtubule modifying agents (stabilizing or de-stabilizing) is a mitotic arrest cell cycle arrest of dividing cells, which was measured using the following protocol: • Cell preparation: 5000 A2058 cells were seeded in 100 µl complete DMEM into 96-well plates (Cell Carrier, Perkin Elmer) the day before inhibitor treatment. Cells were exposed to inhibitors (ranging from 1 - 0.008 µM) for 24 hours and fixed by addition of half a volume 10% PFA in PBS (30 min., RT). Cells were permeabilized and stained with Hoechst33324 by addition of 1:10 volume of 1%BSA/1% Triton X-100, 10 µM Hoechst33324 in PBS (30 min., RT), followed by a first image acquisition. Subsequently cells were additionally stained with rabbit anti pSer^10 Histone H3 (Cell Signaling Technologies) and rat anti-α-tubulin (Santa Cruz Technologies, overnight, 4 °C, shaking). Cells were washed and incubated with Alexa 488 conjugated goat anti rat IgG, Alexa 647 conjugated goat anti rabbit IgG antibodies (Life Technologies) and 1 µM Hoechst33324 in 1% BSA/0.1% Triton X-100/1x PBS (shaking; RT; dark), followed by 3 wash cycles and a 2nd round of imaging. • Image acquisition: Fluorescent microscopy images were acquired on an Operetta high content analysis system (Perkin Elmer). 35 fields of view/well were acquired as wide field images (20xWD objective). 1st acquisition: Nuclear DNA content and DNA morphology was imaged using the DAPI filter set. 2nd acquisition: Nuclear DNA, phosphorylated Histone H3 and α-tubulin images were acquired using DAPI, Alexa488 and Alexa647 filter sets. • Image analysis: Images were batch analysed using Columbus software (PerkinElmer). Analyses were run including single cell analysis mode. The total number of nuclei was determined in the DAPI channel. Nuclear DNA was classified into "normal" or "condensed" using a linear classifier mode. The percentage of cells with condensed DNA was calculated for each well (% condensed = (# condensed/ # total) *100). The fraction of cells with pSer10 Histone H3 positive nuclei was determined using Hoechst33342 and Alexa647 signals. 1st the nuclei were identified using DNA staining (Hoechst33342; excluding nuclei at image borders). 2nd the identified nuclei were classified positive or negative for pSer10 Histone H3 by two filters using the "filter by properties" mode based on Alexa 647 intensities. Alexa 647 filter properties were i) mean intensities above threshold /nucleus and ii) a maximum intensity above threshold. Calculation: % Alexa 647^positive = (# Alexa 647^positive / # selected nuclei) *100.
The percentage of cells with condensed DNA and the percentage of pSer10 Histone H3 positive nuclei were blotted as function of inhibitor concentration (log scale) using GraphPad Prism. Half maximal effective concentrations (EC50) of inhibitors were determined using GraphPad's "non-linear regression with variable slope" formula (Y=Bottom + (Top-Bottom)/(1+10^((LogEC50-X)*HillSlope))). Table 1: Effect of selected formula (I) compounds on mitotic arrest in A2058 cells. Half-maximal effective concentrations are given as mean value of at least four experiments for the indicated cellular phenotypes.

[1] = percentage of cells with condensed DNA, read-out: Half-maximal effective concentrations (EC50), Condensed DNA
[2] = percentage of pSer10 Histone H3 positive nuclei, read-out: Half-maximal effective concentrations (EC50), pSer10 Histone H3

Q: Which results are given for Nc1cc(C(F)(F)F)c(-c2cc(N3CCC3)nc(N3CCOCC3)n2)cn1 [Compound 1, 5-(6-(azetidin-1-yl)-2-morpholinopyrimidin-4-yl)-4-(trifluoromethyl)pyridin-2-amine]?
A: pEC50 [1]: 7.10; pEC50 [2]: 7.10

Q: Which results are given for Nc1ncc(-c2cc(N3CC(F)(F)C3)nc(N3CCOCC3)n2)c(C(F)(F)F)n1 [Compound 8, 6-(3,3-difluoroazetidin-1-yl)-2-morpholino-4'-(trifluoromethyl)-[4,5'-bipyrimidin]-2'-amine]?
A: pEC50 [1]: 7.15; pEC50 [2]: 7.14

Q: Nc1cc(C(F)(F)F)c(-c2cc(N3CC(F)C3)nc(N3CCOCC3)n2)cn1 [Compound 2, 5-(6-(3-fluoroazetidin-1-yl)-2-morpholinopyrimidin-4-yl)-4-(trifluoromethyl)pyridin-2-amine] was tested. Which pEC50 [1] did it give?
A: 7.15

Q: What about the pEC50 [2] of the same compound?
A: 6.82

Q: With Nc1cc(C(F)(F)F)c(-c2cc(N3CC(F)(F)C3)nc(N3CCOCC3)n2)cn1 [Compound 4, 5-(6-(3,3-difluoroazetidin-1-yl)-2-morpholinopyrimidin-4-yl)-4-(trifluoromethyl)pyridin-2-amine] as the compound, how does the pEC50 [1] read?
A: 7.19

Q: And the pEC50 [2]?
A: 7.10

Q: CC1CN(c2cc(-c3cnc(N)cc3C(F)(F)F)nc(N3CCOCC3)n2)C1 [Compound 3, 5-(6-(3-methylazetidin-1-yl)-2-morpholinopyrimidin-4-yl)-4-(trifluoromethyl)pyridin-2-amine] was tested. Which pEC50 [1] did it give?
A: 7.04

Q: How did the pEC50 [1] turn out when C[C@@H]1COCCN1c1nc(-c2cnc(N)cc2C(F)(F)F)cc(N2CC(F)(F)C2)n1 [Compound 16, (R)-5-(6-(3,3-difluoroazetidin-1-yl)-2-(3-methylmorpholino)pyrimidin-4-yl)-4-(trifluoromethyl)pyridin-2-amine] was run?
A: 6.95

Q: And the pEC50 [2]?
A: 6.94

Q: What does the source list for Nc1cc(C(F)(F)F)c(-c2cc(N3CC(F)(F)C3)nc(N3CCC(=O)CC3)n2)cn1 [Compound 76, 1-(4-(6-amino-4-(trifluoromethyl)pyridin-3-yl)-6-(3,3-difluoroazetidin-1-yl)pyrimidin-2-yl)piperidin-4-one]?
A: pEC50 [1]: 6.89; pEC50 [2]: 6.90

Q: Nc1cc(C(F)(F)F)c(-c2cc(N3CC(F)(F)C3)nc(N3CCC(O)CC3)n2)cn1 [Compound 40, 1-(4-(6-amino-4-(trifluoromethyl)pyridin-3-yl)-6-(3,3-difluoroazetidin-1-yl)pyrimidin-2-yl)piperidin-4-ol] was tested. Which pEC50 [1] did it give?
A: 6.89

Q: What about the pEC50 [2] of the same compound?
A: 6.87
